As for `*C1CCC(CC2CCC(N3C(=O)c4ccc(Oc5ccc6c(c5)C(=O)N(*)C6=O)cc4C3=O)CC2)CC1` (repeat unit), the glass transition temperature is 240.00 °C.

On to `*CC1CC2CC1C1CCC(CN3C(=O)c4ccc(Oc5ccc6c(c5)C(=O)N(*)C6=O)cc4C3=O)C21` (repeat unit), for which the glass transition temperature was 201.00 °C. The figure for `*CCCCCCCCCCCCN1C(=O)c2ccc(Oc3ccc4c(c3)C(=O)N(*)C4=O)cc2C1=O` (repeat unit) is 70.00 °C.

`*CCCCCCCCCCCN1C(=O)c2ccc(Oc3ccc4c(c3)C(=O)N(*)C4=O)cc2C1=O` (repeat unit) returned a glass transition temperature of 74.00 °C.

For the molecule `*CCCCCCCCCN1C(=O)c2ccc(Oc3ccc4c(c3)C(=O)N(*)C4=O)cc2C1=O` (repeat unit), the glass transition temperature is 89.00 °C. Molecule `*CCCCCCCCN1C(=O)c2ccc(C(=O)c3ccc4c(c3)C(=O)N(*)C4=O)cc2C1=O` (repeat unit) displayed a glass transition temperature of 113.00 °C. The molecule `*c1cc(N2C(=O)c3ccc(Oc4ccc5c(c4)C(=O)N(*)C5=O)cc3C2=O)c(O)cc1O` (repeat unit) gave a glass transition temperature of 263.00 °C.

In turn, `*c1ccc(-c2ccc(N3C(=O)c4ccc(Oc5ccc6c(c5)C(=O)N(*)C6=O)cc4C3=O)c(OCCCCCCOc3ccc(/C=C/c4ccc(F)cc4)cc3)c2)cc1OCCCCCCOc1ccc(/C=C/c2ccc(F)cc2)cc1` (repeat unit) displayed a glass transition temperature of 124.00 °C. As for `*c1ccc(-c2ccc(N3C(=O)c4ccc(Oc5ccc6c(c5)C(=O)N(*)C6=O)cc4C3=O)cc2C(F)(F)F)c(C(F)(F)F)c1` (repeat unit), the glass transition temperature came out at 275.00 °C. To `*c1ccc(C2(c3ccc(N4C(=O)c5ccc(Oc6ccc7c(c6)C(=O)N(*)C7=O)cc5C4=O)cc3)c3ccccc3-c3ccccc32)cc1` (repeat unit) belongs 373.00 °C; to `*c1ccc(OCCOCCOc2cccc(N3C(=O)c4ccc(Oc5ccc6c(c5)C(=O)N(*)C6=O)cc4C3=O)c2)cc1` (repeat unit), 146.50 °C; to `*c1ccc(Oc2ccc(-c3ccc(Oc4ccc(N5C(=O)c6ccc(Oc7cc(C(C)(C)C)c(Oc8ccc9c(c8)C(=O)N(*)C9=O)cc7C(C)(C)C)cc6C5=O)cc4)cc3)cc2)cc1` (repeat unit), 262.00 °C. To `*c1ccc(Oc2ccc(-c3ccc(Oc4ccc(N5C(=O)c6ccc(Oc7ccc8c(c7)C(=O)N(*)C8=O)cc6C5=O)cc4)cc3)cc2)cc1` (repeat unit) belongs 245.00 °C; to `*c1ccc(Oc2ccc(C(c3ccc(Oc4ccc(N5C(=O)c6ccc(Oc7ccc(Sc8ccc(Oc9ccc%10c(c9)C(=O)N(*)C%10=O)cc8)cc7)cc6C5=O)cc4)cc3)(C(F)(F)F)C(F)(F)F)cc2)cc1` (repeat unit), 217.50 °C; to `*c1ccc(Oc2ccc(N3C(=O)c4ccc(Oc5ccc(Sc6ccc(Oc7ccc8c(c7)C(=O)N(*)C8=O)cc6)cc5)cc4C3=O)cc2)cc1` (repeat unit), 212.00 °C. `*c1ccc(Oc2ccc(N3C(=O)c4cccc(Oc5ccc(Sc6ccc(Oc7cccc8c7C(=O)N(*)C8=O)cc6)cc5)c4C3=O)cc2)cc1` (repeat unit) displayed a glass transition temperature of 234.00 °C. The figure for `*c1ccc(Oc2ccc(Sc3ccc(Oc4ccc(N5C(=O)c6ccc(Oc7ccc(Sc8ccc(Oc9ccc%10c(c9)C(=O)N(*)C%10=O)cc8)cc7)cc6C5=O)cc4)cc3)cc2)cc1` (repeat unit) is 186.00 °C; for `*c1ccc(Oc2cccc(Oc3ccc(N4C(=O)c5ccc(Oc6ccc(Sc7ccc(Oc8ccc9c(c8)C(=O)N(*)C9=O)cc7)cc6)cc5C4=O)cc3)c2)cc1` (repeat unit) it is 178.00 °C.

In turn, `*c1cccc(N2C(=O)c3cccc(Oc4ccc(Sc5ccc(Oc6cccc7c6C(=O)N(*)C7=O)cc5)cc4)c3C2=O)c1` (repeat unit) returned a glass transition temperature of 231.00 °C. Molecule `*c1cccc(S(=O)(=O)c2cccc(N3C(=O)c4ccc(Oc5ccc(Sc6ccc(Oc7ccc8c(c7)C(=O)N(*)C8=O)cc6)cc5)cc4C3=O)c2)c1` (repeat unit) returned a glass transition temperature of 231.00 °C.

The record behind these values is the PolyMetriX glass transition set.
